Here are results for 14 molecules from US20240294523A1, “HETEROCYCLIC LACTAM COMPOUND, AND PREPARATION METHOD THEREFOR AND PHARMACEUTICAL USE THEREOF” (Genfleet Therapeutics (Shanghai) Inc., priority 2021, published 2024).

The test system of the assay is U937 cells. Kind of assay: Inhibition of TNF-α-induced programmed necrosis of U937 cells (CellTiter-Glo). It counts as cell-based. The conditions noted are these: U-937, human TNF-α + Q-VD-Oph, 48 hours. As for the experimental part: The U937 cell line used in the following test examples was from ATCC, number: CRL-1593.2, batch number: 63479999, culture medium: RPMI-1640+10% FBS.
The reagents used, suppliers and product numbers of the reagents were as follows: RPMI-1640, Gibco, 11875-093; FBS, Gibco, 10099-141; Trypsin-EDTA, Gibco, 25200-072; PS, Gibco, 15140-122; CellTiter Glo , Progema, G7573; DMSO, VWR AMRESCO, 0231-500ML; TNF-α protein (human, recombinant), Peprotech, 300-01A; Q-VD-Oph, MCE, HY-12305; V-shaped bottom plate, Corning, 3894; 384-well low-flange white flat-bottom microplate, Corning, 3570; RIPK1, Eurofins, 16-022; MOPS, BDH, 441644J; EDTA, Sigma, E5134; Myelin basic protein, Sigma, M1891-25.00 MG; Magnesium acetate, Merck, DU008026; ATP (non-radioactive label), Sigma, A-7699; ATP (radioactive label), Hartmann Analytic, DU008054; Phosphoric acid, Metlab, DU003000; Z-VAD: Shanghai Yuang Chemical Industry, YA02401.
The compounds to be tested were dissolved in DMSO and diluted with DMSO into a series of concentration gradients. 5000 U937 cells/well were seeded in a 384-well white plate. Compounds of corresponding concentrations were added to each well and mixed evenly with the cells. At the same time, human TNF-a and Q-VD-Oph were added to induce programmed necrosis of the cells. The cells were placed at 37° C., 5% CO2 incubator for 48 hours. CellTiter-Glo reagent was used for detection, and the chemiluminescence reading was detected using a microplate reader after sufficient lysis reaction. The test results were calculated using the formula SR (%)=(RLU compound−RLU blank)/(RLU high control−RLU blank)×100%. The survival rate and the final concentration of the corresponding compound were drawn into a curve and fitted using four parameters. Inhibitory IC50 on TNF-α-induced cell necrosis of the compounds were calculated.

In the case of `C[C@@H](C(F)F)N1CCc2c(nn(Cc3c(F)cccc3F)c2Cl)C1=O` (single isomer, unassigned) [Compound Z9-1], the IC50 worked out at 256 nM.

`C[C@H](C(F)F)N1CCc2c(nn(Cc3c(F)cccc3F)c2Br)C1=O` (single isomer, unassigned) [Compound Z24-1]: the IC50 was found to be 119 nM.

`N#CCCN1CCc2c(nn(Cc3c(F)cccc3F)c2Cl)C1=O` [Compound Z4, 3-(3-chloro-2-(2,6-difluorobenzyl)-7-oxo-2,4,5,7-tetrahydro-6H-pyrazolo[3,4-c]pyridine-6-yl)propionitrile]: the IC50 came to 1360 nM.

Regarding `O=C1c2nn(Cc3cc(F)ccc3F)c(Cl)c2CCN1CC(F)F` [Compound Z5, 3-chloro-2-(2,5-difluorobenzyl)-6-(2,2-difluoroethyl)-2,4,5,6-tetrahydro-7H-pyrazolo[3,4-c]pyridin-7-one], the IC50 came out at 205 nM.

For the molecule `O=C1c2nn(Cc3c(F)ccc(F)c3F)c(Cl)c2CCN1CC(F)F` [Compound Z6, 3-chloro-6-(2,2-difluoroethyl)-2-(2,3,6-trifluorobenzyl)-2,4,5,6-tetrahydro-7H-pyrazolo[3,4-c]pyridin-7-one], the IC50 was 482 nM.

On to `N#CCC1(N2CCc3c(nn(Cc4c(F)cccc4F)c3Cl)C2=O)CC1` [Compound Z7, 2-(1-(3-chloro-2-(2,6-difluorobenzyl)-7-oxo-2,4,5,7-tetrahydro-6H-pyrazolo[3,4-c]pyridin-6-yl)cyclopropyl)acetonitrile], for which the IC50 was 1830 nM.

On to `O=C1c2nn(Cc3ccccc3Cl)c(Cl)c2CCN1CC(F)F` [Compound Z8, 3-chloro-2-(2-chlorobenzyl)-6-(2,2-difluoroethyl)-2,4,5,6-tetrahydro-7H-pyrazolo[3,4-c]pyridin-7-one], for which the IC50 turned out to be 253 nM.

With `O=C1c2nn(Cc3c(F)cccc3F)c(Cl)c2CCN1C1(C(F)F)CC1` [Compound Z10, 3-chloro-2-(2,6-difluorobenzyl)-6-(1-(difluoromethyl)cyclopropyl)-2,4,5,6-tetrahydro-7H-pyrazolo[3,4-c]pyridin-7-one], the IC50 amounted to 676 nM.

`O=C1c2nn(Cc3c(F)cccc3F)c(Cl)c2CCN1CC1(F)CC1` [Compound Z11, 3-chloro-2-(2,6-difluorobenzyl)-6-((1-fluorocyclopropyl)methyl)-2,4,5,6-tetrahydro-7H-pyrazolo[3,4-c]pyridin-7-one]: the IC50 turned out to be 1600 nM.

`CC(C(F)F)N1CCc2c(nn(Cc3ccccc3OC(F)(F)F)c2Cl)C1=O` (centres unmarked) [Compound Z12, 3-chloro-6-(1,1-difluoropropan-2-yl)-2-(2-(trifluoromethoxy)benzyl)-2,4,5,6-tetrahydro-7H-pyrazolo[3,4-c]pyridin-7-one]: the IC50 amounted to 1380 nM.

As to `O=C1c2nn(Cc3c(F)cccc3F)c(Cl)c2CCN1C(C(F)F)C1CC1` (centres unmarked) [Compound Z13, 3-chloro-6-(1-cyclopropyl-2,2-difluoroethyl)-2-(2,6-difluorobenzyl)-2,4,5,6-tetrahydro-7H-pyrazolo[3,4-c]pyridin-7-one], the IC50 is 120 nM.

With `CC(C(F)F)N1CCc2c(nn(Cc3cc(F)cc(F)c3)c2Cl)C1=O` (centres unmarked) [Compound Z14, 3-chloro-2-(3,5-difluorobenzyl)-6-(1,1-difluoropropan-2-yl)-2,4,5,6-tetrahydro-7H-pyrazolo[3,4-c]pyridin-7-one], the concentration for half-maximal inhibition (IC50) was 982 nM.

With `CCC(C(F)F)N1CCc2c(nn(Cc3c(F)cccc3F)c2Cl)C1=O` (centres unmarked) [Compound Z15, 3-chloro-2-(2,6-difluorobenzyl)-6-(1,1-difluorobutan-2-yl)-2,4,5,6-tetrahydro-7H-pyrazolo[3,4-c]pyridin-7-one], the IC50 came out at 127 nM.

In the case of `CC(COc1ccc(C#N)cn1)N1CCc2c(nn(Cc3ccccc3)c2Cl)C1=O` (centres unmarked) [Compound Z16, 6-(2-(2-benzyl-3-chloro-7-oxo-2,4,5,7-tetrahydro-6H-pyrazolo[3,4-c]pyridine-6-yl)propoxy)nicotinonitrile], the IC50 came to 2950 nM.
